# Measurements taken from patent US9765056B2, “Indole and pyrrole compounds, a process for their preparation and pharmaceutical compositions containing them” (LES LABORATOIRES SERVIER, priority 2013, dated 2017).
# Where a name gives a salt, the structure may show the parent alone.
# Assays:
# [1] = test system: RS4;11 leukaemia tumour line; assay: In vitro cytotoxicity, Microculture Tetrazolium Assay (MTT); type: cell-based; details: Homo sapiens; RS4;11 cells, 48 hours exposure
# Experimental: The cytotoxicity studies were carried out on the RS4;11 leukaemia tumour line.
# The cells are distributed onto microplates and exposed to the test compounds for 48 hours. The cell viability is then quantified by a colorimetric assay, the Microculture Tetrazolium Assay (Cancer Res., 1987, 47, 939-942).
# Bcl-2 protein = Bcl-2 protein (histag-Bcl-2, UniProtKB P10415) (Homo sapiens (Human), UniProt P10415); assay: Inhibition of Bcl-2 by the fluorescence polarisation technique; type: binding; details: for IC50: fluorescence polarisation test, method A, or method B where underlined (underlining not visible), read-out: IC50 (nM) Bcl-2 FP
# Chain of Bcl-2 protein (P10415 whole entry): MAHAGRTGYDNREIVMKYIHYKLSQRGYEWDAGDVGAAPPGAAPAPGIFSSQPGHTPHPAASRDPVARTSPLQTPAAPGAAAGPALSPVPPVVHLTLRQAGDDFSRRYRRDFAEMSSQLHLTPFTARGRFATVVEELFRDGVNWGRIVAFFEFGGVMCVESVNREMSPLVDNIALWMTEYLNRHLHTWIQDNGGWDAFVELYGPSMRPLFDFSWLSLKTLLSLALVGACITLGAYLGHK
# Excerpt: Inhibition of Bcl-2 by the fluorescence polarisation technique
SMILES,IC50 (Bcl-2 protein),"inhibition at 22.2 µM (Bcl-2 protein; @22.2 μM test compound, partial inhibitor, read-out: percentage fluorescence polarisation inhibition (Bcl-2 FP))",IC50 [1]
"Cc1cc(C(=O)N(c2ccc(O)cc2)c2ccc3c(c2)CCN3)cn1-c1cc2c(cc1C(=O)N1Cc3ccccc3C[C@H]1CN1CCN(C)CC1)OCO2 [Example 103, N-(2,3-Dihydro-1H-indol-5-yl)-N-(4-hydroxyphenyl)-5-methyl-1-(6-{[(3S)-3-[(4-methylpiperazin-1-yl)methyl]-3,4-dihydroisoquinolin-2(1H)-yl]carbonyl}-1,3-benzodioxol-5-yl)-1H-pyrrole-3-carboxamide hydrochloride]",17.4 nM,,523 nM
"COc1cc(-n2nc(C(=O)N(c3ccccc3)c3ccccc3)c3ccccc32)c(C(=O)N2Cc3ccccc3C[C@H]2CN)cc1OCc1ccccc1 [Example 134, 1-{2-[(3S)-3-(Aminomethyl)-1,2,3,4-tetrahydroisoquinoline-2-carbonyl]-4-(benzyloxy)-5-methoxyphenyl}-N,N-diphenyl-1H-indazole-3-carboxamide]",,72.1%,2100 nM
"O=C(c1cn(-c2cc3c(cc2C(=O)N2Cc4ccccc4C[C@H]2CN2CCOCC2)OCO3)c2c1CCCC2)N(c1ccccc1)c1ccc(O)cc1 [Example 113, N-(4-Hydroxyphenyl)-1-(6-{[(3S)-3-(morpholin-4-ylmethyl)-3,4-dihydroisoquinolin-2(1H)-yl]carbonyl}-1,3-benzodioxol-5-yl)-N-phenyl-4,5,6,7-tetrahydro-1H-indole-3-carboxamide hydrochloride]",19.2 nM,,203 nM
"CN1CCN(C[C@@H]2Cc3ccccc3CN2C(=O)c2cc3c(cc2-n2cc(C(=O)N(c4ccccc4)c4ccc(O)cc4)c4ccccc42)OCCO3)CC1 [Example 170, N-(4-Hydroxyphenyl)-1-{7-[(3S)-3-[(4-methylpiperazin-1-yl)methyl]-1,2,3,4-tetrahydroisoquinoline-2-carbonyl]-2,3-dihydro-1,4-benzodioxin-6-yl}-N-phenyl-1H-indole-3-carboxamide]",16.8 nM,,177 nM
"CN1CCN(C[C@@H]2Cc3ccccc3CN2C(=O)c2cc3c(cc2-n2cc(C(=O)N(c4ccccc4)c4ccc(O)cc4)c4ccccc42)OC(F)(F)O3)CC1 [Example 182, 1-{2,2-Difluoro-6-[(3S)-3-[(4-methylpiperazin-1-yl)methyl]-1,2,3,4-tetrahydroisoquinoline-2-carbonyl]-2H-1,3-benzodioxol-5-yl}-N-(4-hydroxyphenyl)-N-phenyl-1H-indole-3-carboxamide]",111 nM,,1850 nM
"O=C(c1cn(-c2ccccc2C(=O)N2Cc3ccccc3C[C@H]2CO)c2ccccc12)N(c1ccccc1)c1ccc(O)cc1 [Example 172, 1-{2-[(3S)-3-(Hydroxymethyl)-1,2,3,4-tetrahydroisoquinoline-2-carbonyl]phenyl}-N-(4-hydroxyphenyl)-N-phenyl-1H-indole-3-carboxamide]",4.2 nM,,1200 nM
"CN1CCN(C[C@@H]2Cc3ccccc3CN2C(=O)c2cc3c(cc2-n2cc(C(=O)N(c4ccc(O)cc4)c4ccc(OC(F)(F)F)cc4)c4ccccc42)OCO3)CC1 [Example 51, N-(4-Hydroxyphenyl)-1-(6-{[(3S)-3-[(4-methylpiperazin-1-yl)methyl]-3,4-dihydroisoquinolin-2(1H)-yl]carbonyl}-1,3-benzodioxol-5-yl)-N-[4-(trifluoro-methoxy)phenyl]-1H-indole-3-carboxamide]",6.9 nM,,155 nM

# Further lines, with some results ahead:
IC50 (Bcl-2 protein),"inhibition at 22.2 µM (Bcl-2 protein; @22.2 μM test compound, partial inhibitor, read-out: percentage fluorescence polarisation inhibition (Bcl-2 FP))",SMILES,IC50 [1]
74.3 nM,,"Cc1cc(C(=O)N(c2ccccc2)c2ccc(O)cc2)cn1-c1cc(F)c(F)cc1C(=O)N1Cc2ccccc2C[C@H]1CN1CCN(C)CC1 [Example 20, 1-(4,5-Difluoro-2-{[(3S)-3-[(4-methylpiperazin-1-yl)methyl]-3,4-dihydroisoquinolin-2(1H)-yl]carbonyl}phenyl)-N-(4-hydroxyphenyl)-5-methyl-N-phenyl-1H-pyrrole-3-carboxamide]",900 nM
8.4 nM,,"Cc1cc(C(=O)N(c2ccc(O)cc2)c2ccc3[nH]ccc3c2)cn1-c1cc(Br)ccc1C(=O)N1Cc2ccccc2C[C@H]1CN1CCN(C)CC1 [Example 46, 1-(5-Bromo-2-{[(3S)-3-[(4-methylpiperazin-1-yl)methyl]-3,4-dihydroisoquinolin-2(1H)-yl]carbonyl}phenyl)-N-(4-hydroxyphenyl)-N-(1H-indol-5-yl)-5-methyl-1H-pyrrole-3-carboxamide]",93.4 nM
20.5 nM,,"Cc1cc(C(=O)N(c2ccccc2)c2ccc(O)c(Cl)c2)cn1-c1cc(Cl)ccc1C(=O)N1Cc2ccccc2C[C@H]1CN1CCN(C)CC1 [Example 27, N-(3-Chloro-4-hydroxyphenyl)-1-(5-chloro-2-{[(3S)-3-[(4-methylpiperazin-1-yl)methyl]-3,4-dihydroisoquinolin-2(1H)-yl]carbonyl}phenyl)-5-methyl-N-phenyl-1H-pyrrole-3-carboxamide hydrochloride]",479 nM
4.4 nM,,"Cc1cc(C(=O)N(c2ccc(O)cc2)c2ccc3[nH]ccc3c2)cn1-c1cc2c(cc1C(=O)N1Cc3ccccc3C[C@H]1CN1CCN(C)CC1)OCO2 [Example 87, N-(4-Hydroxyphenyl)-N-(1H-indol-5-yl)-5-methyl-1-(6-{[(3S)-3-[(4-methylpiperazin-1-yl)methyl]-3,4-dihydroisoquinolin-2(1H)-yl]carbonyl}-1,3-benzodioxol-5-yl)-1H-pyrrole-3-carboxamide]",138 nM
7.5 nM,,"Cc1cc(C(=O)N(c2ccc(O)cc2)c2ccc(Cl)cc2)cn1-c1cc(Br)ccc1C(=O)N1Cc2ccccc2C[C@H]1CN1CCN(C)CC1 [Example 62, 1-(5-Bromo-2-{[(3S)-3-[(4-methylpiperazin-1-yl)methyl]-3,4-dihydroisoquinolin-2(1H)-yl]carbonyl}phenyl)-N-(4-chlorophenyl)-N-(4-hydroxyphenyl)-5-methyl-1H-pyrrole-3-carboxamide]",205 nM
3.9 nM,,"CN1CCN(C[C@@H]2Cc3ccccc3CN2C(=O)c2ccc(Cl)cc2-n2cc(C(=O)N(c3ccc(O)cc3)c3ccc(O)cc3)c3ccccc32)CC1 [Example 73, 1-(5-Chloro-2-{[(3S)-3-[(4-methylpiperazin-1-yl)methyl]-3,4-dihydroisoquinolin-2(1H)-yl]carbonyl}phenyl)-N,N-bis(4-hydroxyphenyl)-1H-indole-3-carboxamide]",51.4 nM
6.7 nM,,"Cc1cc(C(=O)N(c2ccc(O)cc2)c2ccc(F)cc2)cn1-c1cc2c(cc1C(=O)N1Cc3ccccc3C[C@H]1CN1CCN(C)CC1)OCO2 [Example 84, N-(4-Fluorophenyl)-N-(4-hydroxyphenyl)-5-methyl-1-(6-{[(3S)-3-[(4-methylpiperazin-1-yl)methyl]-3,4-dihydroisoquinolin-2(1H)-yl]carbonyl}-1,3-benzodioxol-5-yl)-1H-pyrrole-3-carboxamide]",146 nM
3.3 nM,,"CN1CCN(C[C@@H]2Cc3ccccc3CN2C(=O)c2ccc(Cl)cc2-n2cc(C(=O)N(c3ccc(O)cc3)c3ccc4c(ccn4C)c3)c3ccccc32)CC1 [Example 93, 1-(5-Chloro-2-{[(3S)-3-[(4-methylpiperazin-1-yl)methyl]-3,4-dihydroisoquinolin-2(1H)-yl]carbonyl}phenyl)-N-(4-hydroxyphenyl)-N-(1-methyl-1H-indol-5-yl)-1H-indole-3-carboxamide]",75.4 nM
